Key:
[1] = test system: human sphingosine kinase; assay: Screening assay for inhibitors of SK; format: biochemical; conditions: library screen
Description: An assay for screening for inhibitors of SK has been established (French et al., Cancer Res 63: 5962 (2003)). […] Representative active compounds from four chemotypes of SK inhibitors, designated herein as Compounds I-IV, are shown in FIG. 1.

[2] = test system: endogenous SK in rat IEC6 cells; assay: Cell-based [3H]sphingosine to [3H]S1P assay of endogenous SK activity, rat IEC6 cells; conditions: FIG. 2A
Procedure: (§1) FIG. 2. […] Values represent the mean±sd SK activity in triplicate samples in a typical experiment. A cell-based assay in which the phosphorylation of exogenously added [^3H]sphingosine to [^3H]S1P by endogenous SK can be quantified (French et al., Cancer Res 63: 5962 (2003)) was used to evaluate the effects of test compounds on the activity of SK in intact cells. In this assay, cells are incubated with [^3H]sphingosine for an appropriate period of time, and then [^3H]sphingosine and [^3H]S1P (formed by endogenous SK activity) are separated by extraction and levels of both species are determined by scintillation counting. […] For example, human umbilical vein endothelial cells (HUVECs) are commonly used as a model of human vasculature. Additionally, rat IEC6 cells are commonly used as a model of intestinal epithelial cells.

[3] = test system: endogenous SK in human umbilical vein endothelial cells (HUVECs); assay: Cell-based [3H]sphingosine to [3H]S1P assay of endogenous SK activity, HUVECs; conditions: for cellular levels of [3H]S1P: 24 hours treatment, FIG. 3
Procedure: as §1, with “typical experiment. FIG. 3. […] HUVECs were treated with the indicated concentrations of Compound I, II or V for 24 hours. SK activity was measured by adding [^3H]sphingosine and determining its conversion to [3H]S1P. Values represent the mean±SD of duplicate samples. A cell-based” for “typical experiment. A cell-based”, “epithelial cells. […] Specifically, HUVECs, human chondrocytes (HC), and human synovial cells from a patient with RA (HFLS-RA) were examined.” for “epithelial cells.”

[4] = test system: NFκB; assay: TNFα-induced NFκB luciferase reporter assay in fibroblasts; format: cell-based; conditions: TNFα for 6 hours, FIG. 4
Procedure: FIG. 4. Inhibition of TNFα-induced activation of NFκB by ABC294640. Fibroblasts transfected with a TNFα-responsive promoter linked to luciferase were treated with the indicated concentrations of ABC294640 and then treated with TNFα for 6 hours. The amount of luciferase expressed by the cells was then measured by luminescence. Values represent the mean±sd luciferase activity in triplicate samples in a typical experiment.

[5] = test system: ICAM-1 and VCAM-1 in human endothelial cells; assay: TNFα-induced adhesion molecule expression (Western analysis); format: cell-based; conditions: TNFα 100 ng/mL, 6 hours
Procedure: Like endothelial cells in the body, HUVECs will proliferate in response to several growth factors, and will respond to inflammatory cytokines such as TNFα and IL-1β. Western analyses were conducted with human endothelial cells to evaluate the effects of the SK inhibitors on signaling proteins known to be regulated by TNFα. […] Cell lysates from treated cells were assayed for the adhesion molecules ICAM-1 and VCAM-1. TNFα caused marked increases in the expression levels of adhesion proteins involved in leukocyte recruitment, including ICAM-1 and VCAM-1.

[6] = test system: Cox-2 activity (PGE2 production) in IEC6 rat intestinal epithelial cells; assay: TNFα-induced Cox-2 activity (PGE2 ELISA), IEC6 cells; format: cell-based; conditions: 10 μg/mL compound, 100 ng TNFα/mL, 18 hours
[7] = test system: Cox-2 activity (PGE2 production) in human endothelial cells; assay: TNFα-induced Cox-2 activity (PGE2 ELISA), human endothelial cells; format: cell-based; conditions: 10 μg/mL compound, 100 ng TNFα/mL, 18 hours
[8] = test system: male C57BL/6 mice, DSS-colitis; assay: Acute DSS-colitis model of IBD; format: in vivo; conditions: 2% DSS, 50 mg/kg oral daily; for Disease Activity Index (DAI): Days 4-6
[9] = test system: mice, chronic DSS-colitis; assay: Chronic (35-day) DSS-colitis model of IBD; format: in vivo; conditions: for colon length: Day 35, 50 mg/kg oral daily for 7 days, DSS alone 4.9±0.2, water 7.8±0.3; for serum level of IL-6: at time of sacrifice; for increase in DAI: third DSS exposure, 50 mg/kg oral daily Day 28-35, P<0.001 on Day 35; for colonic levels of pro-inflammatory cytokines TNFα, IL-1β, IFN-γ and IL-6: treated during the final DSS cycle, 50 mg/kg oral
[10] = test system: female DBA/1 mice, Collagen-Induced Arthritis; assay: Collagen-Induced Arthritis (CIA) model; format: in vivo; conditions: Day 12; ABC294640 100 mg/kg, ABC747080 50 mg/kg oral
[11] = test system: male Lewis rats, adjuvant-induced arthritis; assay: Adjuvant-induced arthritis model; format: in vivo; conditions: 5, 35, 100 mg/kg oral daily, 10 days
Procedure: FIG. 18. Effects of ABC294640 on disease progression in the adjuvant-induced arthritis model in rats. Male Lewis rats were injected subcutaneously with Mycobacterium butyricum, and symptoms of immune reactivity were present after 2 weeks. Responsive rats were randomized into treatment groups (n=8 per group), and received oral daily doses of: solvent alone (0.375% Tween-80); 100 mg/kg ABC294640; 35 mg/kg ABC294640; or 5 mg/kg ABC294640, or intraperitoneal injections of indomethacin (5 mg/kg) every other day. The severity of disease in each animal was quantified by measurement of the hind paw thickness. Panel A. Time course of hind paw arthritic response. Panel B. Final day (Day 10) hind paw thickness measurements. Panel C. Change in paw thickness of respective group versus non-arthritic rats (naive) at Day 10. *, p<0.05; ***, p<0.001 versus solvent alone group.
Adjuvant-induced arthritis is another widely used assay that recapitulates many features of human rheumatoid arthritis, and so is useful in the evaluation of new drug candidates. Age- and weight-matched male Lewis rats (150-170 g) were injected subcutaneously in the tail with 1 mg of Mycobacterium butyricum (Difco, killed dried) suspended in 0.1 ml of light mineral oil. Symptoms of immune reactivity were present after 2 weeks. […] The severity of disease in each animal was quantified by measurement of the hind paw thickness. […]

[12] = test system: female Swiss-Webster mice; conditions: mouse, in vivo
Procedure: The compounds are soluble to at least 15 mg/ml in 50% dimethylsulfoxide: 50% phosphate-buffered saline (DMSO:PBS) for intraperitoneal (IP) administration or Polyethylene glycol-400 (PEG400) for oral dosing.

[13] = physchem; conditions: aqueous with cosolvent or surfactant or cyclodextrin
[14] = test system: endogenous SK in human chondrocytes (HC); assay: Cell-based S1P formation assay, human chondrocytes; conditions: HCs; read-out: drug concentration that decreases S1P formation by 50%
Procedure: (§2) A cell-based assay in which the phosphorylation of exogenously added [^3H]sphingosine to [^3H]S1P by endogenous SK can be quantified (French et al., Cancer Res 63: 5962 (2003)) was used to evaluate the effects of test compounds on the activity of SK in intact cells. In this assay, cells are incubated with [^3H]sphingosine for an appropriate period of time, and then [^3H]sphingosine and [^3H]S1P (formed by endogenous SK activity) are separated by extraction and levels of both species are determined by scintillation counting. We have used a number of cell lines in this assay to confirm that the SK inhibitors are active in multiple intact cell systems. For example, human umbilical vein endothelial cells (HUVECs) are commonly used as a model of human vasculature. Additionally, rat IEC6 cells are commonly used as a model of intestinal epithelial cells.
(§3) Specifically, HUVECs, human chondrocytes (HC), and human synovial cells from a patient with RA (HFLS-RA) were examined.

[15] = test system: endogenous SK in human synovial cells from a patient with RA (HFLS-RA); assay: Cell-based S1P formation assay, HFLS-RA cells; conditions: read-out: drug concentration that decreases S1P formation by 50%
Procedure: as §2, §3

[16] = test system: HL-60 (human promyelocytic leukemia) cells; assay: TNFα-induced HL-60 cell proliferation; format: cell-based; conditions: 25 ng TNFα/ml, 72 hours
Procedure: FIG. 6. Inhibition of TNFα-induced HL-60 cell proliferation by SK inhibitors. HL-60 cells were serum-starved for 18 hours and then left untreated (▴) or treated with 25 ng of TNFα/ml (▾) in the presence of the indicated concentrations of Compound I, II or V. After 72 hours, the number of cells in each treatment group was quantified.
As discussed above, aberrant activation of leukocytes is a central feature of many inflammatory diseases. Because of the roles of S1P in promoting leukocyte proliferation, we examined the effects of several SK inhibitors on the proliferation of HL-60 (human promyelocytic leukemia) cells. […] Compound I was particularly effective, completely blocking the effects of TNFα at concentrations of 0.2 μM or greater.

SMILES: O=C(NCc1ccncc1)C12CC3CC(C1)CC(c1ccc(Cl)cc1)(C3)C2 [ABC294640]
- inhibition of SK [1]: inhibit SK
- SK activity ([3H]S1P formation) [2]: dose-dependent suppression of SK activity
- SK activity ([3H]S1P formation) ([3]; human endothelial cells, FIG. 2B): dose-dependent suppression of SK activity
- activation of NFκB by TNFα (luciferase) [4]: dose-dependently suppressed
- TNFα induction of ICAM-1 and VCAM-1 ([5]; 25 μM compound): completely abrogated
- TNFα-induced expression of ICAM-1 and VCAM-1 [5]: inhibited
- induction of Cox-2 activity by TNFα (PGE2 production) [6]: strongly suppressed
- induction of Cox-2 activity by TNFα (PGE2 production) [7]: strongly suppressed
- colon length ([8]; Day 6): colons of intermediate length
- colonic S1P levels (LC-MS/MS) ([8]; Day 6): markedly lower levels of colonic S1P
- histological examination of colon sections ([8]; Day 6): no or mild crypt damage, no or low levels of inflammatory cell infiltration and no edema in the submucosa
- increase in colonic myeloperoxidase (MPO) activity ([8]; Day 6): markedly attenuated
- Disease Activity Index (DAI) [8]: reduced the intensity of the IBD manifestations
- SK expression in the colon (immunohistochemistry) ([9]; DSS treated mice): clearly reduced
- colon length [9]: 6.2±0.2 cm
- serum level of IL-6 [9]: reduced the serum level of IL-6
- colonic S1P levels ([9]; oral 50 mg/kg daily, 7 days prior to sacrifice): significant reductions of S1P levels
- increase in DAI [9]: significantly suppressed the increase in DAI
- colonic levels of pro-inflammatory cytokines TNFα, IL-1β, IFN-γ and IL-6 [9]: reduced levels of the pro-inflammatory cytokines
- histologic damage of tibiotarsal joints [10]: significantly reduced histologic damage
- arthritic response (paw thickness) [11]: inhibited this arthritic response in a dose-dependent manner
- dose with no immediate or delayed toxicity ([12]; ip): at least 50 mg/kg
- dose without noticeable toxicity ([12]; po): at least 100 mg/kg
- solubility [13]: ≥ 15 mg/mL

SMILES: Oc1ccc(Nc2nc(-c3ccc(Cl)cc3)cs2)cc1 [Compound II]
- cellular levels of [3H]S1P ([3]; HUVECs): dose-dependent reductions in the cellular levels of S1P
- IC50 ([3]; HUVECs, read-out: drug concentration that decreases S1P formation by 50%): 200 nM
- IC50 [14]: 360 nM
- IC50 [15]: 190 nM
- HL-60 cell proliferation of TNFα-stimulated cells [16]: dose-dependent reductions in HL-60 cell proliferation

SMILES: O=C(O)c1cc(/N=N/c2ccc(O)c(C(=O)O)c2)ccc1O [Dipentum, reference compound]
- colon Histology Score ([8]; Day 6): consistently lower than the DSS-alone animals
- colon length ([8]; Day 6): colons of intermediate length
- elevations of colonic pro-inflammatory proteins IFN-γ, IL-1β, IL-6 and TNFα ([8]; Day 6): attenuated
- increase in colonic myeloperoxidase (MPO) activity ([8]; Day 6): markedly attenuated
- Disease Activity Index (DAI) [8]: reduced the intensity of the IBD manifestations
- colon length [9]: 6.1±0.2 cm
- serum level of IL-6 [9]: reduced the serum level of IL-6
- increase in DAI [9]: significantly suppressed the increase in DAI
- colonic levels of pro-inflammatory cytokines TNFα, IL-1β, IFN-γ and IL-6 [9]: cytokine profiles equivalent to the DSS-alone group

SMILES: O=C1C(=Cc2ccc(O)c(O)c2)Oc2ccccc21 [V]
- cellular levels of [3H]S1P ([3]; HUVECs): dose-dependent reductions in the cellular levels of S1P
- HL-60 cell proliferation of TNFα-stimulated cells [16]: dose-dependent reductions in HL-60 cell proliferation

Source: US8324237B2, “Methods for the treatment and prevention of inflammatory diseases” (priority 2005, dated 2012)
